Experimental data: article PMC3541007 (ChemMedChem, 2009)
pIC50, pKi: −log10 of the molar value. In brackets after ≈: the same amount, converted by molar mass. Several values for one entry are separate records, joined by “and”; a condition that tells them apart may be missing. Equal entries are not always repeated. Where two headings read alike, the source gives them in different places.

How the values were obtained:
[1] = tested on: M. tuberculosis H37Rv PmabAinhA (C-15T); format: cell-based; details: for MIC H37Rv PmabAinhA (C-15T): four weeks
M. tuberculosis H37Rv = format: cell-based; details: wild-type, INH-sensitive, four weeks
[2] = tested on: M. tuberculosis H37Rv ΔkatG; format: cell-based, Mycobacterium tuberculosis
InhA [3] = details: read-out: Ki against InhA; cited from earlier work
InhA [4] = details: read-out: InhA IC50; cited from earlier work
H37Rv = details: cited from earlier work

Molecule: 5-n-butyltriclosan [Compound 10]
- MIC H37Rv PmabAinhA (C-15T) [1]: 37 µg/mL
- MIC H37Rv PmabAinhA (C-15T) ([1]; value in parentheses): 120 µM
- MIC H37Rv (M. tuberculosis H37Rv): 9.4 µg/mL
- MIC H37Rv (M. tuberculosis H37Rv; value in parentheses): 30 µM
- MIC H37Rv ΔkatG [2]: 19 (60) µg/ml and 19 (60) µM

Molecule: NNC(=O)c1ccncc1 [INH, isoniazid]
- fold loss in potency versus InhA(C-15T) strain compared to wild-type ([1]; MIC ratio vs wild-type strain): 13 fold
- MIC H37Rv ΔkatG [2]: >200 (>1400) µg/ml and >200 (>1400) µM

Molecule: NC(=O)C1=CN([C@@H]2O[C@H](COP(=O)(O)OP(=O)(O)OC[C@H]3O[C@@H](n4cnc5c(N)ncnc54)[C@H](O)[C@@H]3O)[C@@H](O)[C@H]2O)C=C[C@@H]1C(=O)c1ccncc1 [INH-NAD]
- pKi (InhA [3]): 8.30

Molecule: CCCCCCCCc1ccc(Oc2ccccc2)c(O)c1 [Sullivan’s n-octyl analog]
- pIC50 (InhA [4]): 8.30
- MIC vs. H37Rv (H37Rv; des-chloro analogs of Sullivan): 6.5 µM (≈ 1.94 µg/mL)

Molecule: CCc1cc(C(N)=S)ccn1 [ethionamide]
- MIC (H37Rv): 18 µM (≈ 2.99 µg/mL)
